The text below walks through data of patent publication US4740501A (priority 1985, dated 1988).

Type in all cases: cell-based
One experiment relates to L1210S. The experiment can be described thus: cells. As to conditions: read-out: T.C.D.50.
The test system of another experiment is L1210 MTX. Put plainly: MTX and cisplatin cross-resistance test, 24 hour exposure.
A further experiment relates to L1210DDP. Put plainly: cells.

Like-named read-outs stand apart in the source and are kept apart here.

With `CN(Cc1cnc2nc(N)nc(N)c2n1)c1ccc(C(=O)N[C@@H](CCC(=O)O)C(=O)O)cc1` [MTX, methotrexate, reference compound], the IC50 came out at 0.005 µM in the experiment with L1210S and 0.5 µM with L1210 MTX (Mus musculus, L1210 MTX, characterisation of resistant line, read-out: T.C.D.50). In addition, the “resistance of L1210 MTX compared to L1210S” value in the experiment on L1210 MTX is given as 100 times.
As for `N.N.[Cl][Pt][Cl]` [cisplatin, cis-diamminedichloroplatinum (II), reference compound], the results for the IC50 in the experiment on L1210S (parental L1210S) and in the experiment with L1210DDP (read-out: T.C.D.50) were 1.5 µM and 30 µM, respectively. The “resistance of L1210DDP compared to L1210S” value in the experiment with L1210DDP came out at 20 fold.
